Reference: paper PMC5933782, “Molecular structures of cdc2-like kinases in complex with a new inhibitor chemotype” (PLoS ONE, 2018)
Like-named read-outs stand apart in the source and are kept apart here.

Tests used:
CDK5/p25 = molecular target: T1, CDK5/p25 (Homo sapiens, UniProt Q00535); assay: radiometric protein kinase assay; type: biochemical; conditions: 15 μmol/L ATP
T1 construct: made in house

CK1δ/ε = assay: radiometric protein kinase assay; type: biochemical, porcine; conditions: 15 μmol/L ATP; read-out: IC50 CK1
CLK4 = CLK4 (Mus musculus, UniProt O35493); assay: radiometric protein kinase assay
Protocol: (§1) Buffers. Buffer A: 10 mM MgCl2, 1 mM EGTA, 1 mM DTT, 25 mM Tris-HCl pH 7.5, 50 μg heparin/mL. Buffer C: 60 mM β-glycerophosphate, 15 mM p-nitrophenylphosphate, 25 mM MOPS (pH 7.2), 15 mM EGTA, 15 mM MgCl2, 1 mM DTT, 1 mM sodium vanadate, 1 mM phenylphosphate.
(§2) Kinase activities were assayed in buffer A or C at 30°C at a final ATP concentration of 15 μmol/L. Blank values were subtracted and activities were expressed in percent of the maximal activity, i.e. in the absence of inhibitors. Controls were performed with appropriate dilutions of DMSO.
(§3) Their kinase activity was assayed in buffer A, with 1 mg histone H1/mL, in the presence of 15 μmol/L [γ-33P] ATP (3,000 Ci/mmol; 10 mCi/mL) in a final volume of 30 μL. After 30 min incubation at 30°C, the reaction was stopped by harvesting onto P81 phosphocellulose supernatant (Whatman) using a FilterMate harvester (Packard) and washing in 1% phosphoric acid. Scintillation fluid was added and the radioactivity measured in a Packard counter.
(§4) All data points for construction of dose response curves were recorded in triplicate.

CDK1/cyclin B = assay: radiometric protein kinase assay; type: biochemical, starfish; conditions: 15 μmol/L ATP
CDK2/cyclin A = molecular target: T2, CDK2/cyclin A (Homo sapiens, UniProt P24941); assay: radiometric protein kinase assay; type: biochemical; conditions: 15 μmol/L ATP; read-out: IC50 CDK2/cyclinA
T2 construct: made in house

CLK2 = CLK2 (Mus musculus, UniProt O35491); assay: radiometric protein kinase assay
Protocol: as §1, §2, §3, §4

DYRK3 = molecular target: T3, DYRK3 (Homo sapiens, UniProt O43781); assay: radiometric protein kinase assay; type: biochemical; conditions: 15 μmol/L ATP; read-out: IC50 DYRK 3
T3 sequence (O43781 1-588): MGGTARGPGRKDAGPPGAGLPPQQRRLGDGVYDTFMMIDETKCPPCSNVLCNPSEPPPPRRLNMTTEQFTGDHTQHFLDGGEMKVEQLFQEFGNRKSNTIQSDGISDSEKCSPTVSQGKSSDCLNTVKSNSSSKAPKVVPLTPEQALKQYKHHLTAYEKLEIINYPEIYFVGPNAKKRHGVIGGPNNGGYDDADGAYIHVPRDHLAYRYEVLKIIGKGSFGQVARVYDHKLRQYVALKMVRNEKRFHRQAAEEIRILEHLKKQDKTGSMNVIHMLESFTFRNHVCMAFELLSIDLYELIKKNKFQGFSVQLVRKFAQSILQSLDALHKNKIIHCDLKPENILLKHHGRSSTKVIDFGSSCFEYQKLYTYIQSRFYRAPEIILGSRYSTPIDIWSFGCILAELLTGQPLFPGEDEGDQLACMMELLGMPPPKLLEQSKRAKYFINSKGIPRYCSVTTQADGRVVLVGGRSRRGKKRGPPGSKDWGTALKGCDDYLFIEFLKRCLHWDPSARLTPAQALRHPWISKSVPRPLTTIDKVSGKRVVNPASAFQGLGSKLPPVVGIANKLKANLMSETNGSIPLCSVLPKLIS

GSK-3 = assay: radiometric protein kinase assay; type: biochemical, porcine; conditions: 15 μmol/L ATP; read-out: IC50 GSK3
DYRK1A [1] = molecular target: DYRK1A (Homo sapiens, UniProt Q13627); assay: radiometric protein kinase assay; type: biochemical; conditions: 15 μmol/L ATP; read-out: IC50 DYRK 1A
DYRK1B = DYRK1B (Homo sapiens, UniProt Q9Y463); assay: radiometric protein kinase assay; type: biochemical; conditions: 15 μmol/L ATP; read-out: IC50 DYRK 1B
DYRK2 = molecular target: T4, DYRK2 (Homo sapiens, UniProt Q92630); assay: radiometric protein kinase assay; type: biochemical; conditions: 15 μmol/L ATP; read-out: IC50 DYRK 2
T4 sequence (Q92630 1-601): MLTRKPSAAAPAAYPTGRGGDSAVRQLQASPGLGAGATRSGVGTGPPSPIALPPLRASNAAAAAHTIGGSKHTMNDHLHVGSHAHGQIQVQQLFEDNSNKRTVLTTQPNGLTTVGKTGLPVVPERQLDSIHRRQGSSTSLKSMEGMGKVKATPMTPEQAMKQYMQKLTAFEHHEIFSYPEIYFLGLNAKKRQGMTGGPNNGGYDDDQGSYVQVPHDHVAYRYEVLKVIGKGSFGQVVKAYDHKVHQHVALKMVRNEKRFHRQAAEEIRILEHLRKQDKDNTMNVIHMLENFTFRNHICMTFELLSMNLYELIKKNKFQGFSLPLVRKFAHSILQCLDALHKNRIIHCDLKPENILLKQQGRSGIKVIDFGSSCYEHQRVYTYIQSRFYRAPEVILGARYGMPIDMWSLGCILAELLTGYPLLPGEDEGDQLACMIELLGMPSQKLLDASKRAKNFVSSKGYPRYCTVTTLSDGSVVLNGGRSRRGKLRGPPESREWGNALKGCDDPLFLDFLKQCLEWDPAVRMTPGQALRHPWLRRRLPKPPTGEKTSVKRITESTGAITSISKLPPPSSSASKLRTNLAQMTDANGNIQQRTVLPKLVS

CLK3 = CLK3 (Mus musculus, UniProt O35492); assay: radiometric protein kinase assay
CDK9/cyclin T = CDK9/cyclin T (Homo sapiens, UniProt P50750); assay: radiometric protein kinase assay
CLK1 [2] = molecular target: CLK1 (Mus musculus, UniProt P22518); assay: radiometric protein kinase assay
Protocol: Buffer A: 10 mM MgCl2, 1 mM EGTA, 1 mM DTT, 25 mM Tris-HCl pH 7.5, 50 μg heparin/mL. Buffer C: 60 mM β-glycerophosphate, 15 mM p-nitrophenylphosphate, 25 mM MOPS (pH 7.2), 15 mM EGTA, 15 mM MgCl2, 1 mM DTT, 1 mM sodium vanadate, 1 mM phenylphosphate.
Controls were performed with appropriate dilutions of DMSO. The GS-1, CKS, CDK7/9 tide and RS peptide substrates were obtained from Proteogenix (Oberhausbergen, France).
CDK1/cyclin B (M phase starfish oocytes, native), CDK2/cyclin A and CDK5/p25 (human, recombinant) were prepared as previously described [33]. […] ATP (3,000 Ci/mmol; 10 mCi/mL) in a final volume of 30 μL. After 30 min incubation at 30°C, the reaction was stopped by harvesting onto P81 phosphocellulose supernatant (Whatman) using a FilterMate harvester (Packard) and washing in 1% phosphoric acid. Scintillation fluid was added and the radioactivity measured in a Packard counter.
as §4

CLK1 [3] = tested on: CLK1; set-up: method as in PMID 21450467; conditions: cited from earlier work
DYRK1A [4] = tested on: DYRK1A; set-up: method as in PMID 21450467; conditions: cited from earlier work
HCT116 = conditions: colorectal cancer cell line; cited from earlier work
CLK1 [5] = conditions: cited from earlier work
DYRK1A [6] = conditions: cited from earlier work
CLK1 [7] = tested on: CLK1; set-up: method as in PMID 28555643; conditions: 1 μM; cited from earlier work
DYRK1A [8] = tested on: DYRK1A; set-up: method as in PMID 28555643; conditions: 1 μM; cited from earlier work
DYRK1A [9] = tested on: DYRK1A; set-up: method as in PMID 28561591; conditions: cited from earlier work
CLK1 [10] = tested on: CLK1; set-up: method as in PMID 28561591; conditions: cited from earlier work

Chain of CDK9/cyclin T (P50750 whole entry): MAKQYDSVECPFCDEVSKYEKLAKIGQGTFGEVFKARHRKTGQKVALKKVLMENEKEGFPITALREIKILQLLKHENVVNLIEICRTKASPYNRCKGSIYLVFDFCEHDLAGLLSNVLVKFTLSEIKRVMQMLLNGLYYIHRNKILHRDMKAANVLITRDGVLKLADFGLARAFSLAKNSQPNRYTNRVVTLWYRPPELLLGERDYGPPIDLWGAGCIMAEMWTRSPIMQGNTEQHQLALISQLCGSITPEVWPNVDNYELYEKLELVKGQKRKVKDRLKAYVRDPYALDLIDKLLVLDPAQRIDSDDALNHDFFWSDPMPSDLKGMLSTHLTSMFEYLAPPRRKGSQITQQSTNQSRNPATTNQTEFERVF
Chain of CDK9/cyclin T (O60563 whole entry partner): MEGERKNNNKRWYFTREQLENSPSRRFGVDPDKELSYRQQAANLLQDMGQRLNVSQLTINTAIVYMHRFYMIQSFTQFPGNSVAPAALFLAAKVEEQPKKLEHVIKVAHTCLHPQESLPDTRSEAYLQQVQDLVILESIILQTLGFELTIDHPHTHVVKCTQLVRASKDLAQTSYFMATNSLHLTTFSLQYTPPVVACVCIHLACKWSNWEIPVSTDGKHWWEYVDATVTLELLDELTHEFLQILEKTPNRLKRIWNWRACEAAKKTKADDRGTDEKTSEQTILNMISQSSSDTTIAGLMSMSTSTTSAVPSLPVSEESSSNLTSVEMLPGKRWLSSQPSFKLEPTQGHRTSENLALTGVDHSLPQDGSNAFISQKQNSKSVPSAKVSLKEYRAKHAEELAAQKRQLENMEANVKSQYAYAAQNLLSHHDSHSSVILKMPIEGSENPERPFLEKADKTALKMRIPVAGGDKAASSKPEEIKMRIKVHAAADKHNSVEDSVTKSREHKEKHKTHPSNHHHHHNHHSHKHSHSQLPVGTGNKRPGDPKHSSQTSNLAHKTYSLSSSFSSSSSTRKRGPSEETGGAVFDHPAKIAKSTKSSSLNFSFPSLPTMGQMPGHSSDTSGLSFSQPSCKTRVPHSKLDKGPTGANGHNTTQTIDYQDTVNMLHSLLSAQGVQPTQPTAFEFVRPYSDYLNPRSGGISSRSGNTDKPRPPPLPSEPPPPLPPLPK
T1 sequence (Q00535 whole entry): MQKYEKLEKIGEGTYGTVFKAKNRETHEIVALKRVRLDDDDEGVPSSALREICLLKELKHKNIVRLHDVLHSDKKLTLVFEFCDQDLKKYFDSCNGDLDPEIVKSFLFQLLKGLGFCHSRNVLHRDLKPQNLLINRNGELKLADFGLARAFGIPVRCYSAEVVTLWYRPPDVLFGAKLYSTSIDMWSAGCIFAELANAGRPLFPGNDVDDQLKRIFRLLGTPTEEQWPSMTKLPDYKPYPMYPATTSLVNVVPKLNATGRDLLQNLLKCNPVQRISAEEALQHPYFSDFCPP
T1 sequence (Q15078 99-307 partner limits assumed): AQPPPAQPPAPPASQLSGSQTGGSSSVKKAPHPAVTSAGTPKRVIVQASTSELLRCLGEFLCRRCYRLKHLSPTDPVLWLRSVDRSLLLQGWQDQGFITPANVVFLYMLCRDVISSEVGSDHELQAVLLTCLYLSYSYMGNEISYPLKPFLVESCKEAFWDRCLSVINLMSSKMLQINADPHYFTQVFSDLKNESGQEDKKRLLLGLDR
Chain of CLK3 (O35492 whole entry): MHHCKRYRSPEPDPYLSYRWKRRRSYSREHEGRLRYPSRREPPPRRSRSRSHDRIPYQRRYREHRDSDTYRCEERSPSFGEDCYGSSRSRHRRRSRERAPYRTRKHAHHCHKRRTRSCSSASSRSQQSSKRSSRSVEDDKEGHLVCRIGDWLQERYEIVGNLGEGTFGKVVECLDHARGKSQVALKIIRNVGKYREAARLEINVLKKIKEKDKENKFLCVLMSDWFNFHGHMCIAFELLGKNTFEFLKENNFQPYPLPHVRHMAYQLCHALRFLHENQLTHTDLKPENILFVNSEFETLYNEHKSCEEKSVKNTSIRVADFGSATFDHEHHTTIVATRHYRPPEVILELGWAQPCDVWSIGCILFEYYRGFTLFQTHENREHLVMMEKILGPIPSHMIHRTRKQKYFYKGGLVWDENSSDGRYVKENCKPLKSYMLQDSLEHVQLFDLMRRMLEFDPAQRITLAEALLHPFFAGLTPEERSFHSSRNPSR
Chain of CLK1 (Mus musculus, UniProt P22518) (P22518 whole entry): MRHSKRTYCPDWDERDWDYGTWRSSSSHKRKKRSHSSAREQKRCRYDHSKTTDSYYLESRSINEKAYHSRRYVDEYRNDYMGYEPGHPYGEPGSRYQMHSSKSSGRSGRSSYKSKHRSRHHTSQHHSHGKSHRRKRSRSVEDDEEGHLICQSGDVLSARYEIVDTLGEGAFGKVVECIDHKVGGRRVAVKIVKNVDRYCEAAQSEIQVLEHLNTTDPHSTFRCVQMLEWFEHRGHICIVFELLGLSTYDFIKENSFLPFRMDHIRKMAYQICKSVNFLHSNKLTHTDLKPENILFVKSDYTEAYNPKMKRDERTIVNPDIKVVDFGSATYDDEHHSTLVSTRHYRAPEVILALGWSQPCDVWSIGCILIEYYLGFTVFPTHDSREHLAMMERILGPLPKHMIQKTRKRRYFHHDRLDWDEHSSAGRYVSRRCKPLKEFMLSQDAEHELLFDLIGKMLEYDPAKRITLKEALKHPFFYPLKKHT
Chain of DYRK1B (Q9Y463 whole entry): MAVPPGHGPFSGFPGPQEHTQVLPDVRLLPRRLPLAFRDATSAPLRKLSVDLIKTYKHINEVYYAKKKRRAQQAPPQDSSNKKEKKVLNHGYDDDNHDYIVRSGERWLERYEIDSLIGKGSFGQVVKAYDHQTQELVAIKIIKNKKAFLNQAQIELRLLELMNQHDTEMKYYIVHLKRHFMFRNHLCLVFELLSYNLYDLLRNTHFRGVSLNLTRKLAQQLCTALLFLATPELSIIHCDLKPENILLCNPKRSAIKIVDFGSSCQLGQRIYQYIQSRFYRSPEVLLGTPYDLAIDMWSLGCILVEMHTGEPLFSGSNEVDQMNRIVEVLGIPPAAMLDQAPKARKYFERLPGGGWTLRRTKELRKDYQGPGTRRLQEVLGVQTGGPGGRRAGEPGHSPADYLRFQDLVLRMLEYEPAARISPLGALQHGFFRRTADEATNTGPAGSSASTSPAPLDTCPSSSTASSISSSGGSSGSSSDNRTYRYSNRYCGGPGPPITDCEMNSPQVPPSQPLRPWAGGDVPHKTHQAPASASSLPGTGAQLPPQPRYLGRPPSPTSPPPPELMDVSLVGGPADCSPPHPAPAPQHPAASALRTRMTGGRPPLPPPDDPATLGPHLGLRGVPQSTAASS
Chain of CLK4 (O35493 whole entry): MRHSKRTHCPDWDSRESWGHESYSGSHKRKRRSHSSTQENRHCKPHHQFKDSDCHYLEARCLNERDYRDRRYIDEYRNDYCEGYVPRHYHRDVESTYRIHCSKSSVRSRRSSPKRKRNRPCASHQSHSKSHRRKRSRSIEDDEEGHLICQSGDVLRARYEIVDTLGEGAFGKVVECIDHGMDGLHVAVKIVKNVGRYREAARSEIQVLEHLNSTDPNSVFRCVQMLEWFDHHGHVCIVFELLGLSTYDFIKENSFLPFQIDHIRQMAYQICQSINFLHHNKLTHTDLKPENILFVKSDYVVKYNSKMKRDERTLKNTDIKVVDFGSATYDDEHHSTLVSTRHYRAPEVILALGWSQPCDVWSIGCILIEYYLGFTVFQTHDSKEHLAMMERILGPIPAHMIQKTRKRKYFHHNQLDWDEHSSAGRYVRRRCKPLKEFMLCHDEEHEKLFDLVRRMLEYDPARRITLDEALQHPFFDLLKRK
Chain of CLK2 (O35491 whole entry): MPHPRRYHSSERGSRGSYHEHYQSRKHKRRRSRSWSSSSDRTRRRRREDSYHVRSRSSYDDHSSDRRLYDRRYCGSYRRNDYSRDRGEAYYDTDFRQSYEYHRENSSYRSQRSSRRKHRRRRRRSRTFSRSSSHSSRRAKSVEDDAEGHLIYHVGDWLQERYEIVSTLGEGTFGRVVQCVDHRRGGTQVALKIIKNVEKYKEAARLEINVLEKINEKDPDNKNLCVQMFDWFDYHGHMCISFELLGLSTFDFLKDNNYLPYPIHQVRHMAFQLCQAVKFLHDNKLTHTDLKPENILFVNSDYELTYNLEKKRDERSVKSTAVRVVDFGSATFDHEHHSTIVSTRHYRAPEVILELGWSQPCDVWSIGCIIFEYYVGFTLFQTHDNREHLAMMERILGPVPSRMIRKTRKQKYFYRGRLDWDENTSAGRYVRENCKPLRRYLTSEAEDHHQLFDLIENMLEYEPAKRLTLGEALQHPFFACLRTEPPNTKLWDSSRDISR

| SMILES | IC50 (CDK5/p25) [µM] | IC50 (CK1δ/ε) [µM] | IC50 (CLK4) [µM] | IC50 (CDK1/cyclin B) [µM] | IC50 (CDK2/cyclin A) [µM] | IC50 (CLK2) [µM] | IC50 (DYRK3) [µM] | IC50 (GSK-3) [µM] | IC50 (DYRK1A [1]) [µM] | IC50 (DYRK1B) [µM] | IC50 (DYRK2) [µM] | IC50 (CLK3) [µM] | IC50 (CDK9/cyclin T) [µM] | melting point | IC50 (CLK1 [2]) [µM] | other results |
| --- | --- | --- | --- | --- | --- | --- | --- | --- | --- | --- | --- | --- | --- | --- | --- | --- |
| COc1cccc(-c2c[nH]c3c4c(ccc23)CNC4=O)c1 [8f, 3-(3-Methoxyphenyl)-6,7-dihydropyrrolo[3,4-g]indol-8(1H)-one] | > 10 | > 10 | 0.11 | > 10 | > 10 | 0.32 | 5.4 | > 10 | 3.8 | 1.9 | 2.1 | 2.8 | > 10 | 207 to 208 °C | 0.11 |  |
| O=C1NCc2ccc3c(-c4cccc([N+](=O)[O-])c4)c[nH]c3c21 [8j, 3-(3-Nitrophenyl)-6,7-dihydropyrrolo[3,4-g]indol-8(1H)-one] | > 10 | > 10 | 0.061 | > 10 | > 10 | 0.37 | 1.9 | > 10 | > 10 | 1.5 | 4.9 | 8.5 | > 10 | 237 to 238 °C (dec.) | 0.038 |  |
| Cn1cc(-c2ccccc2)c2ccc3c(c21)C(=O)NC3 [15a, 1-Methyl-3-phenyl-6,7-dihydropyrrolo[3,4-g]indol-8(1H)-one] | > 10 | > 10 | 0.16 | > 10 | > 10 | 1.1 | > 10 | > 10 | > 10 | > 10 | > 10 | > 10 | > 10 | 255 to 256 °C | 0.19 |  |
| O=C1NCc2c(-c3ccccc3F)cc3c(-c4ccccc4)c[nH]c3c21 [17b, 5-(2-Fluorophenyl)-3-phenyl-6,7-dihydropyrrolo[3,4-g]indol-8(1H)-one] | > 10 | > 10 | 0.91 | > 10 | > 10 | 4.1 | > 10 | > 10 | > 10 | > 10 | > 10 | > 10 | > 10 | 136 to 139 °C | 5.8 |  |
| Cc1nc(CNc2ncnc3ccc(-c4ccc5c(c4)OCO5)cc23)cs1 [NCGC00185963] |  |  |  |  |  |  |  |  |  |  |  |  |  |  |  | IC50 (CLK1 [3]): 0.096 µM; IC50 (DYRK1A [4]): 0.206 µM |
| CN1CCN(C(=O)C(C)(C)c2ccc(C(=O)Nc3cn4cc(-c5ccncc5)ccc4n3)cc2)CC1 [T3] |  |  |  |  |  |  |  |  |  |  |  |  |  |  |  | GI50 (HCT116): 0.13 µM; IC50 (CLK1 [5]): 0.00067 µM; IC50 (DYRK1A [6]): 0.26 µM |
| c1cc(-c2ccc3[nH]ncc3c2)ccn1 [TG693] |  |  |  |  |  |  |  |  |  |  |  |  |  |  |  | inhibition of CLK1 activity (CLK1 [7]): 93%; inhibition of DYRK1A activity (DYRK1A [8]): 84% |
| COc1ccc2sc(C(=O)N(C)Cc3cccc(F)c3)cc2c1 [compound 4] |  |  |  |  |  |  |  |  |  |  |  |  |  |  |  | IC50 (DYRK1A [9]): 0.34 µM; IC50 (CLK1 [10]): 0.007 µM |
